Among the data in PubChem BioAssay (NCI) are TGI values, retold here.

Some test systems named below: HL-60(TB) leukemia; TK-10 renal; T-47D breast; HCT-116 colon; CAKI-1 renal; MOLT-4 leukemia; CCRF-CEM leukemia; HS 578T breast; LOX IMVI melanoma; MCF7 breast; MALME-3M melanoma; DU-145 prostate; NCI-H522 lung; OVCAR-3 ovarian; NCI/ADR-RES ovarian; HOP-92 NSCLC; HT29 colon; NCI-H226 lung; HCC-2998 colon; PC-3 prostate.
Common to all, as to assay: NCI anticancer screen, dose series, 48 h

Structures are written as SMILES.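 Dose response: 5 concentrations. Exposure: 48 h. Format: 96-well plates. Endpoint: linear interpolation; highest concentration if not reached. Definition used: TGI = concentration required for complete inhibition of growth.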

On to `COc1cc([C@@H]2c3cc4c(cc3[C@@H](Nc3ccc(Cl)cc3C(=O)c3ccccc3)[C@H]3COC(=O)[C@H]23)OCO4)cc(OC)c1OC`, for which the TGI is 1.09 µM with HL-60(TB) leukemia; > 100 µM in the test with TK-10 renal; > 100 µM in the test on T-47D breast; > 100 µM in the test with HCT-116 colon; > 100 µM in the test with CAKI-1 renal; > 100 µM in the test on MOLT-4 leukemia. Also, the TGI in the test on CCRF-CEM leukemia is > 100 µM; in the test with HS 578T breast, 0.926 µM; in the test with LOX IMVI melanoma, > 100 µM; in the test with MCF7 breast, > 100 µM; with MALME-3M melanoma, > 100 µM; with DU-145 prostate, > 100 µM. The TGI is 0.918 µM in the test on NCI-H522 lung, > 100 µM in the test on OVCAR-3 ovarian and > 100 µM in the test with NCI/ADR-RES ovarian.

With `CC(=O)Nc1cccc(N2C(=O)/C(=C\c3cccc(Oc4ccccc4)c3)SC2c2ccccc2)c1` (stereo unspecified), the TGI in the test with HL-60(TB) leukemia, in the test on TK-10 renal, in the test with HOP-92 NSCLC, in the test on HT29 colon, with T-47D breast and with HCT-116 colon was > 100 µM throughout. The TGI with CAKI-1 renal is > 100 µM; in the test on MOLT-4 leukemia it was > 100 µM; in the test with CCRF-CEM leukemia it was 51.6 µM; in the test on HS 578T breast it was > 100 µM; in the test on LOX IMVI melanoma, > 100 µM; in the test on MCF7 breast, > 100 µM. Besides, the TGI in the test with MALME-3M melanoma, in the test on DU-145 prostate, in the test with NCI-H226 lung, in the test with NCI-H522 lung, in the test on OVCAR-3 ovarian and with NCI/ADR-RES ovarian was > 100 µM in each case. Also, in the test with HCC-2998 colon, the TGI was > 100 µM.

For the molecule `O=C(Cn1c2ccc(Br)cc2c2nc3ccccc3nc21)Nc1ccccc1`, the TGI with PC-3 prostate is 46.5 µM; in the test on TK-10 renal it was > 100 µM; in the test with HOP-92 NSCLC, 32.4 µM; with HT29 colon, > 100 µM; with T-47D breast, 57.1 µM; in the test on HCT-116 colon, 27.6 µM. Also, the TGI is 86.9 µM in the test on CAKI-1 renal; > 100 µM with MOLT-4 leukemia; > 100 µM with CCRF-CEM leukemia; 76.9 µM in the test with HS 578T breast; 29.2 µM in the test with LOX IMVI melanoma; 79 µM in the test on MALME-3M melanoma. Besides, the TGI with DU-145 prostate was > 100 µM; in the test with NCI-H226 lung, 82.7 µM; with NCI-H522 lung, 40.5 µM; in the test on OVCAR-3 ovarian, > 100 µM; with NCI/ADR-RES ovarian, 45.1 µM; in the test with HCC-2998 colon, > 100 µM.

In the case of `Cc1ccc(S(=O)(=O)N/N=C2/CCC3(O)CC2(C)CCC2[C@H]3CC2(C)C)cc1` (stereo partly specified), the TGI is 65.1 µM with PC-3 prostate; > 100 µM in the test on HL-60(TB) leukemia; > 100 µM in the test with TK-10 renal; 87.6 µM in the test on HOP-92 NSCLC; 99.5 µM in the test on HT29 colon; > 100 µM in the test with T-47D breast. Moreover, the TGI was 75.7 µM in the test with HCT-116 colon; > 100 µM in the test with CAKI-1 renal; 45.2 µM with MOLT-4 leukemia; 86.1 µM in the test on CCRF-CEM leukemia; > 100 µM in the test on HS 578T breast; 28.6 µM in the test on LOX IMVI melanoma. In addition, the TGI in the test on MCF7 breast was > 100 µM; with MALME-3M melanoma, > 100 µM; in the test with DU-145 prostate, > 100 µM; with NCI-H226 lung, 70.9 µM; in the test with NCI-H522 lung, 91.9 µM; in the test on OVCAR-3 ovarian it was > 100 µM. The TGI with NCI/ADR-RES ovarian was > 100 µM.

`O=[N+]([O-])c1ccc(-c2nn3c(C45CC6CC(CC(C6)C4)C5)nnc3s2)c(Cl)c1`: the TGI with PC-3 prostate, in the test on HL-60(TB) leukemia, in the test with TK-10 renal, in the test with HOP-92 NSCLC, in the test with HT29 colon and in the test on T-47D breast was > 100 µM each time. The TGI in the test with HCT-116 colon, in the test on CAKI-1 renal, in the test on MOLT-4 leukemia, in the test on CCRF-CEM leukemia, in the test with HS 578T breast and in the test with LOX IMVI melanoma was > 100 µM in each case. Further, the TGI in the test with MALME-3M melanoma, with DU-145 prostate, with NCI-H226 lung, in the test on NCI-H522 lung, in the test with OVCAR-3 ovarian and in the test with NCI/ADR-RES ovarian was > 100 µM in each case. In the test on HCC-2998 colon, the TGI was > 100 µM.

For the molecule `CSc1nc(=O)cnn1C`, the TGI in the test on PC-3 prostate, in the test with TK-10 renal, in the test with HT29 colon, with T-47D breast, in the test with HCT-116 colon and in the test with CAKI-1 renal was > 100 µM each time. For the same molecule, the TGI in the test with MOLT-4 leukemia, in the test with CCRF-CEM leukemia, in the test with HS 578T breast, in the test with MCF7 breast, with MALME-3M melanoma and in the test with DU-145 prostate was > 100 µM in each case. Moreover, the TGI with NCI-H226 lung, in the test with NCI-H522 lung, with OVCAR-3 ovarian, in the test on NCI/ADR-RES ovarian and in the test on HCC-2998 colon was > 100 µM each time.

For the molecule `CCOc1ccc(NC(=O)C(=O)Nn2c(N)nnc2N)cc1`, the TGI with PC-3 prostate, in the test on HL-60(TB) leukemia, in the test with TK-10 renal, in the test on HOP-92 NSCLC, in the test with HT29 colon and with T-47D breast was > 100 µM throughout. For the same molecule, the TGI with HCT-116 colon, in the test on CAKI-1 renal, in the test with MOLT-4 leukemia, in the test with CCRF-CEM leukemia, in the test with HS 578T breast and with LOX IMVI melanoma was > 100 µM throughout. The TGI in the test with MCF7 breast, with MALME-3M melanoma, in the test on NCI-H226 lung, in the test on NCI-H522 lung, in the test on OVCAR-3 ovarian and with NCI/ADR-RES ovarian was > 100 µM each time. In the test on HCC-2998 colon, the TGI is > 100 µM.
